In US9951292B2, “Grease composition” (TOTAL MARKETING SERVICES, priority 2011, dated 2018):

Assays:
algae and daphnia = assay: Aquatic toxicity to algae and daphnia according to standards OECD 201 and 202; format: in vivo
Excerpt: Preferably, the grease compositions according to the invention contain additives which are not hazardous to the environment and human health. Preferably, the grease compositions according to the invention are free from organic halogenated compounds, nitrite type compounds, metals or metallic compounds other than sodium, potassium, magnesium, calcium, lithium and/or aluminium. Preferably, the grease compositions according to the invention are not toxic to the aquatic environment. In particular the grease compositions according to the invention have an aquatic toxicity to algae, daphnia and fish of at least 1000 mg/l according to standards OECD 201, 202 and 203.
Similarly, the main constituents of the grease, i.e. those present at more than 5% by mass with respect to the total mass of the grease composition, such as the base oil and the soap, have an aquatic toxicity to algae and daphnia of at least 100 mg/l according to standards OECD 201 and 202.
Similarly, when a constituent has an aquatic toxicity to algae and daphnia of at least 100 mg/l according to standards OECD 201 and 202 (category D), said constituent can be present in the grease at any concentration. The grease compositions according to the invention have a concentration by mass of constituents having an aquatic toxicity to algae and daphnia comprised between 10 mg/l and 100 mg/l according to standards OECD 201 and 202 (category E), less than or equal to 25%. The grease compositions according to the invention have a concentration by mass of constituents having an aquatic toxicity to algae and daphnia comprised between 1 mg/l and 10 mg/l according to standards OECD 201 and 202 (category F), less than or equal to 2%, preferably less than or equal to 1%. This only concerns the constituents of the grease the concentration by mass in the grease of which is greater than or equal to 0.1%.

[1] = Biodegradability according to standard OECD 301B
Excerpt: This only concerns the constituents of the grease the concentration by mass in the grease of which is greater than or equal to 0.1%.

Row | Molecule | aquatic toxicity to algae and daphnia (algae and daphnia; in vivo) | aquatic toxicity to algae and daphnia (algae and daphnia; OECD 201 and 202) | aquatic toxicity to algae and daphnia, category (algae and daphnia; OECD 201 and 202) | biodegradability [1] [%]
1 | CCCCCCCCCCCCCCCCCCOC(=O)CCc1cc(C(C)(C)C)c(O)c(C(C)(C)C)c1 [antioxidant 2, Octadecyl 3-(3,5-ditertiobutyl-4-hydroxyphenyl) propanoate] | over 100 mg/l | – | – | –
2 | CCCCCCC(O)CCCCCCCCCCC(=O)[O-].[Li+] (centres unmarked) [lithium 12-hydroxystearate] | – | over 100 mg/l | D (aquatic toxicity to algae and daphnia of at least 100 mg/l according to standards OECD 201 and 202 (category D)) | –
3 | Tolyltriazole [corrosion inhibitor 2] | 1 to 10 mg/L | – | – | 4
